Laboratory results published in article PMC9549500, “Inhibition of TRPC4 channel activity in colonic myocytes by tricyclic antidepressants disrupts colonic motility causing constipation” (Journal of Cellular and Molecular Medicine, 2022).

Target: T1, TRPC4 (Mus musculus, UniProt Q9QUQ5)
T1 construct: native channel in murine sigmoid colonic myocytes
T1 sequence (Q9QUQ5 1-974): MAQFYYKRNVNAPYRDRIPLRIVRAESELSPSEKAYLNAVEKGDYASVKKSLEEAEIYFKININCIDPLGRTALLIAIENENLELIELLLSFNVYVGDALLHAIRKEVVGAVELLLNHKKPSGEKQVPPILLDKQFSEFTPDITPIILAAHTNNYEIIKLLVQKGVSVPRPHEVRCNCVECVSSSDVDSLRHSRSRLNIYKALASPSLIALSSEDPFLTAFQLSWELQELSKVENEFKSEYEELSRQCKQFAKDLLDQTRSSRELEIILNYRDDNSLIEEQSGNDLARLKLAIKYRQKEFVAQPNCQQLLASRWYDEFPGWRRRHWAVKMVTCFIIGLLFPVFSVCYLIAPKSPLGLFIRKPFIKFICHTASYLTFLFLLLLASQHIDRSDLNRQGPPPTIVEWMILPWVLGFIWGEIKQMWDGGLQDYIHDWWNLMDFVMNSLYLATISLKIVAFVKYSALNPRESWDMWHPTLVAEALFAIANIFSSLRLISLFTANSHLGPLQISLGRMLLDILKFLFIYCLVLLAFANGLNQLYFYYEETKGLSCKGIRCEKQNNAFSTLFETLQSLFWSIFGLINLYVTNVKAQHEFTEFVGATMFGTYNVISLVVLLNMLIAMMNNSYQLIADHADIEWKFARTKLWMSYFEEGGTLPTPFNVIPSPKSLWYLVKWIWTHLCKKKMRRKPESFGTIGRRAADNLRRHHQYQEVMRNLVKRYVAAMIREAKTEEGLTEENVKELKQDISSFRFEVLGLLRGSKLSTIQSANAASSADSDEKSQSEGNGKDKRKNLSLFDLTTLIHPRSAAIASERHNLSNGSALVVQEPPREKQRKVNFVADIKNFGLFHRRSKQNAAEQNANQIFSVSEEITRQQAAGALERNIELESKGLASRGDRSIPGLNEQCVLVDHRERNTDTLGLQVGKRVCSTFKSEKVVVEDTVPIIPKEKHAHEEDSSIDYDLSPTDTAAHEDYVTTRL
Assay: whole-cell patch clamp of CCh-evoked mIcat in murine colonic myocytes, […] Pico145; current absent in TRPC4-deficient mice
Format: cell-based

With `Cn1c(=O)n(CCCO)c(=O)c2c1nc(Oc1cccc(OC(F)(F)F)c1)n2Cc1ccc(Cl)cc1` [Pico145] the “whole-cell patch clamp of CCh-evoked mIcat in murine colonic myocytes, 100 nM Pi” value was “The selective and potent antagonist of TRPC4, Pico145, completely blocked the CCh‐evoked current”.
